Source: patent US20250345295A1, “LMK235 COMPOSITIONS AND METHODS” (UNM Rainforest Innovations, priority 2024, published 2025)

How the values were obtained:
[1] = test system: HDAC5 protein; test: Western blot of TG HDAC5 protein; assay type: in vivo, mouse; conditions: for TG HDAC5 protein levels: LMK235 treatment
Method: Mice were euthanized with pentobarbital (FatalPlus, 480 mg/kg) and both ipsilateral and contralateral TG were removed. TG were washed immediately in PBS and stored at −80° C. Protein from TG tissue was extracted following homogenization using a pestle and 500 μL of 1× RIPA buffer (Thermo Fisher Scientific, Inc., Waltham, MA, Cat #89,900). Samples were put on a rocking shaker for two hours and then centrifuged, and the supernatant removed to a new tube. Sample was assayed for total protein (Bradford, Thermo Fisher Scientific, Inc., Waltham, MA). Samples were then prepared for electrophoresis by mixing with 2× sample buffer and boiling for five minutes at 100° C. for denaturation.
Proteins were loaded on a 12% Tris-Glycine polyacrylamide gradient gel (Bio-Rad Laboratories, Inc., Hercules, CA) and transferred to a PVDF membrane (MilliporeSigma, Burlington, MA). Membrane was blocked for an hour with 5% nonfat milk in TBST buffer at room temperature and incubated at 4° C. with anti-HDAC5 antibody overnight (Abcam, Cambridge, UK, #ab55403, #ab2772, #ab170935). The membrane was subsequently washed with TBST and then incubated with anti-rabbit secondary with HRP for one hour at room temperature (Abcam ab6721, diluted 1:1000 in TBST). The washing was repeated and then the blot developed with chemiluminescent substrate (Thermo Fisher Scientific, Inc., Waltham, MA Cat #32,106). The blot was then imaged using a Li-Cor Odyssey FC imaging system. Signal intensity was normalized to actin (Abcam ab8227, 1:2000) or tubulin (Abcam #ab10287), which was used as a loading control. Signal intensity was analyzed using ImageJ for comparisons.

[2] = test system: HDAC5 and pain related genes in TG; test: RT-PCR of TG gene expression; assay type: in vivo, mouse
Method: To confirm that the anti-allodynic mechanism provided by LMK235 was accompanied by changes in RNA of specific pain relate genes, TG expression of several genes was assessed in the TG of LMK235-treated and untreated FRICT-ION groups to naïve controls with RT-PCR (FIG. 12).
Primers were ordered from Bio-Rad Laboratories, Inc. (Hercules, CA). Samples were run by UNM Human Tissue Repository Core facility. 400 μg of total RNA was transcribed into cDNA using iScript cDNA synthesis kit (Catalog #1708890, BioRad Laboratories, Inc., Hercules, CA, USA). Relative analysis of HDAC5 by Sybr Green qRT-PCR was run in order to validate the results observed via RNAseq. All primers, housekeeping gene primers, and the amplicon context sequence were purchased pre-validated from Bio-Rad Laboratories, Inc. (PrimePCR SYBR Green Assay: HDAC5, Mouse, qMmuCID0021326; Bio-Rad Laboratories, Inc., Hercules, CA). All qRT-PCR amplification reactions were done in 20 μl volumes in triplicate using iTaq Universal SYBR Green Supermix (Catalog #1725122, Bio-Rad Laboratories, Inc., Hercules, CA) in 96-well plates and run on a LightCycler 96 qRT-PCR system (Roche, Germany). The Amplification program used for amplification was an initial activation step of 95° C. for two minutes followed by 40 cycles at 95° C. for five seconds and 60° C. for 30 seconds, and concluding with a melt curve of 65° C.-95° C. with five seconds/step. qRT-PCR was done on the HDAC5 gene target and two housekeeping genes within each of the treated and untreated controls and experimental conditions. qRT-PCR data were analyzed using the 2-ΔΔcT method (Livak K J, Schmittgen T D, Methods 2001 December;25(4):402-408). Briefly, the mean ΔcT of each differentially expressed gene target assayed for, in both the experimental conditions and the untreated controls was calculated by subtracting the mean cT from the mean cT of the housekeeping genes values for each sample type. ΔΔcT was then calculated by subtracting the experimental ΔcT group from the control Act group. Expression fold change was expressed as 2-ΔΔcT.

[3] = LMK235-treated FRICT-ION mice, week 10

With `Cc1cc(C)cc(C(=O)NOCCCCCC(=O)NO)c1` [LMK235, N-[[6-(Hydroxyamino)-6-oxohexyl]oxy]-3,5-dimethyl-benzamide] the “TG HDAC protein levels vs untreated FRICT-ION mice” value ([1]; LMK235-treated FRICT-ION mice, males and females) was “significantly lower”, the “TG HDAC5 protein levels” value ([1]; female FRICT-ION mice) was “to naïve levels” and the “TG HDAC5 protein levels” value ([1]; male FRICT-ION mice) was “below naïve levels”. The HDAC5 expression ([2]; LMK235-treated FRICT-ION mice) was “reduced”, the Hist1h2bc change ([2]; LMK235-treated FRICT-ION mice) was 1.4 fold and the Hist2h2aa1 change ([2]; LMK235-treated FRICT-ION mice) was 1.6 fold. For the same compound, the “CCKBR RNA” value [2, 3] was “normalized”, the “GNAI2 RNA” value [2, 3] was “partially restored” and the “IFIT1 RNA” value [2, 3] was “partially restored”. The “NTS RNA” value [2, 3] was “normalized”, the “SCFN9 RNA” value [2, 3] was “normalized” and the HDAC5 expression ([2]; LMK235-treated naïve controls) was “reduced”. For the same compound, the “changes in HDAC10 gene” value ([2]; LMK235-treated naïve mice) was “not observed” and the “changes in HDAC11 gene” value ([2]; LMK235-treated naïve mice) was “not observed”.
